In brackets after ≈: the same amount, converted by molar mass. Like-named read-outs stand apart in the source and are kept apart here. Where a SMILES comes first, the peptide text is derived from it. [ ]: non-standard residue; d: D form. NMeY = CN[C@@H](Cc1ccc(O)cc1)C(=O)O; NMeL = CN[C@@H](CC(C)C)C(=O)O; dNMeL = CN[C@H](CC(C)C)C(=O)O; Abu = CC[C@H](N)C(=O)O
Assays:
in vivo = settings: male, po
Description: (§1) For mouse PK on peptides (4) and (5), blood concentrations versus time profiles were obtained from 2 groups of 3 male C57Bl/6 mice. In the intravenous PK group (n = 3), the compound was administered intravenous (i.v.) by bolus injection (5 mL/kg) at a dose of 1 mg/kg, solubilized in N-Methyl-2-pyrrolidone (10%) and blank plasma (90%). For oral PK, another group of 3 male C57Bl/6 mice, a dose of 3 mg/kg was orally applied (dosing volume of 10 mL/kg) as a homogenous suspension of water (99%), Tween80 (0.5%) and methylcellulose (0.5%).
(§2) For both rodents, blood samples (10–50 µL) were collected at 0.08 (i.v. only), 0.25, 0.5, 1, 2, 4, 7, and 24 h after dosing. […] Analyses of parent compound concentrations were carried out in blood using LC-MS/MS. An aliquot of 30 μL was taken and added to 200 μL MeCN (including Glyburide (c = 50 ng/mL) as internal standard) for protein precipitation. Sample analysis was performed on a LC–MS/MS system consisting of an AB SCIEX API 5500 QTrap mass spectrometer equipped with a TurboIonSpray™ interface (Framingham, USA). The MS system was connected to a HTS CTC PAL auto-sampler (Zwingen, Switzerland) and to a Flux Rheos 2200 pump system (Reinach, Switzerland). The supernatants (2 µL) were injected directly onto the LC-MS/MS system for analysis. The test articles and its internal standard were separated with a Phenomenex Kinetex C18 (50 × 2 mm ID, 2.7 µm pore size). A binary gradient with a mobile phase consisting of water (A) and acetonitrile (B) was used for the LC-separation. Both mobile phases (A) and (B) were acidified with 0.1% formic acid. The elution gradient program was as follows: [time (min), (% mobile phase B): (0, 95) (5.8, 85) (5.81, 99) (6.5, 99) (6.51, 95) (8, 95)]. The column temperature was maintained at 50 °C using a column heater. Under these experimental conditions, the LLOQ was 0.4 ng/mL.

[1] = mouse
Description: as §1, §2

in vitro [2] = settings: dog, MDCK
Description: (§3) The values relate to single experiments. For the MDCK assay, the lower limit of quantification (LLOQ) was 5 nM, and for PAMPA 2 nM, respectively. […] This has been estimated by looking at independent replicates across the assay dynamic range.

[3] = Supercritical fluid chromatography (SFC) retention, exposed polarity; type: physicochemical; settings: Chirex 3014 column, reflects exposure of polar groups
Description: Conditions for analytical supercritical fluid chromatography (SFC) were taken from previous publications (Goetz et al. [2014a], [b]). The Pirkle chiral stationary phase Chirex 3014, a silica bonded (S)-valine and (R)-1-(α-naphthyl)ethylamine with a urea linkage, was selected. A mobile phase of 15% methanol in supercritical CO2 enabled adequate separation in combination with a low-slope gradient. High retention times were mitigated by increasing the percentage of methanol in the eluent and the addition of the relatively weak salt pair ammonium formate. In the resulting chromatographic system, differences in retention depend upon hydrophobic interactions, the ability for hydrogen bonding, the presence of dipoles, and van der Waals interactions of the solutes with the stationary phase (Goetz et al. [2014a], [b]).
Next, we applied SFC-analysis to compare calculations related to polar surface area with experimentally derived data. […] Thus, calibrated SFC retention times can be compared to the SAPSA values obtained from molecular dynamics. […] As a result, shielding of polar atoms under SFC conditions is realized most optimally in the Abu derivative (4) leading to a short retention time of 2.7 min. […] However, in this case the best permeability was attributed to the Phe analogue. […] However, most likely in the case of peptide (5), for which the MDCK assay is not aligned with PAMPA and SFC, the low predictability for oral uptake would have excluded this candidate from an in vivo experiment. Taking into account the in vitro profiling, it seems possible to identify cyclic peptides with good permeability and solubility.

[4] = mouse, microsomes
Description: (§4) The values relate to single experiments. […] This has been estimated by looking at independent replicates across the assay dynamic range.
(§5) In order to make predictions of pharmacokinetic properties of these cyclic peptides, further in vitro evaluation was carried out to determine plasma-protein binding (PPB) and metabolic stability in mouse liver microsomes (MLM). […] In order to predict clearance in vivo, evaluation in vitro was assessed in MLM.

[5] = rat, in vivo, po, 3 mg/kg
Description: (§6) For rat PK, blood concentration versus time profiles were obtained from 3 male Sprague Dawley rats. For intravenous PK, the compound was administered intravenously by bolus injection (0.5 mL/kg) at a dose of 3 mg/kg, solubilized in N-Methyl-2-pyrrolidone (30%) and PEG200 (70%). For oral PK, after a washout period of 48 h, an oral gavage was administered to the same animals at a dose of 3 mg/kg at a dosing volume of 2.5 mL/kg. The oral dose was dispersed in water (99%), Tween80 (0.5%) and methylcellulose (0.5%), forming a homogenous suspension. For both rodents, blood samples (10–50 µL) were collected at 0.08 (i.v. only), 0.25, 0.5, 1, 2, 4, 7, and 24 h after dosing. To investigate the absorption and the impact of pre-systemic metabolism, the model of portal vein cannulation in rats was applied for compounds orally dosed in a cassette. The week before the PK experiments, the rats were surgically prepared with catheter implantation into the right jugular vein (for collection of blood from the systemic circulation) and the hepatic portal vein (for collection of blood from the portal vein, i.e. after intestinal absorption and metabolism and before liver pe-systemic metabolism). After recovery, the rats were orally dosed by gavage (same dose, volume and formulation as described above), and blood samples (50 µL) were collected at 0.25, 0.5, 1, 2, 4, 7, and 24 h concomitantly from the 2 blood vessels. Analyses of parent compound concentrations were carried out in blood using LC-MS/MS. An aliquot of 30 μL was taken and added to 200 μL MeCN (including Glyburide (c = 50 ng/mL) as internal standard) for protein precipitation. Sample analysis was performed on a LC–MS/MS system consisting of an AB SCIEX API 5500 QTrap mass spectrometer equipped with a TurboIonSpray™ interface (Framingham, USA). The MS system was connected to a HTS CTC PAL auto-sampler (Zwingen, Switzerland) and to a Flux Rheos 2200 pump system (Reinach, Switzerland). The supernatants (2 µL) were injected directly onto the LC-MS/MS system for analysis. The test articles and its internal standard were separated with a Phenomenex Kinetex C18 (50 × 2 mm ID, 2.7 µm pore size). A binary gradient with a mobile phase consisting of water (A) and acetonitrile (B) was used for the LC-separation. Both mobile phases (A) and (B) were acidified with 0.1% formic acid. The elution gradient program was as follows: [time (min), (% mobile phase B): (0, 95) (5.8, 85) (5.81, 99) (6.5, 99) (6.51, 95) (8, 95)]. The column temperature was maintained at 50 °C using a column heater. Under these experimental conditions, the LLOQ was 0.4 ng/mL.
(§7) Accordingly, we decided to conduct a hepatic portal vein (H.P.V.) study in Sprague Dawley rats due to the technical difficulties associated with a smaller species like mice. Rats were equipped with double jugular vein and hepatic portal vein cannulation. A standard jugular vein cannulation experiment was run in parallel as a control.

[6] = plasma
Description: as §4, §5

[7] = rat, in vivo, 3 mg/kg; for clearance: iv; for AUC: po
Description: as §6, §7

[8] = mouse, in vivo; for Vd / clearance: iv, 1 mg/kg; for Tmax: po
Description: as §1, §2

physchem = settings: pH 6.8, thermodynamic from solid
Description: as §3

in vitro [9] = settings: mouse, microsomes
Description: as §4, §5

[10] = in vivo, cited from earlier work; for CL Mouse / Vss: iv, 2.1 mg/kg; for Vss / Tmax / T1/2term: mouse; for Tmax: po, 7.1 mg/kg

Compound | bioavailability (in vivo; C57BL/6, mouse) [%] | class for in vivo CL in mice [1] | Papp (in vitro [2]) [×10⁻⁶ cm/s] | SFC [3] [min] | clearance in the MLM assay (in words) [4] | Liver first pass effect [5] [%] | fraction unbound [6] | clearance [7] [mL/min/kg] | AUC ([7]; Jugular vein (AuC)) [µM·h] | AUC ([7]; Portal vein (AuC)) [µM·h] | half-life [8] [min] | Vd [8] [L/kg] | clearance [8] [mL/min/kg] | Tmax ([8]; 3 mg/kg) [min] | Log PAMPA | solubility thermodynamic (physchem) [µM] | microsomal CLint (in vitro [9]) [µL/min/mg] | CL Mouse [10] [mL/min/kg] | Vss [10] [L/kg] | Tmax [10] [h] | further results
CC(C)C[C@@H]1NC(=O)[C@H](C)NC(=O)[C@H]2CCCN2C(=O)[C@H](CC(C)C)NC(=O)[C@H](CC(C)C)N(C)C(=O)[C@@H](CC(C)C)N(C)C1=O [(5), [Ala-Leu-NMe-D-Leu-NMe-Leu-Leu-D-Pro]] (cyclo(AL[dNMeL][NMeL]L[dP])) | 23 ± 4 | high CL | 2.7 | 2.8 | very high CL | 77 | < 0.01 | 70 | 0.104 | 0.449 | 24 ± 6 | 2.8 ± 0.3 | 105 ± 26 | 18 | −4.6 | > 1000 | 654 | – | – | – | –
CC(C)C[C@@H]1NC(=O)[C@H](Cc2ccccc2)NC(=O)[C@H]2CCCN2C(=O)[C@H](CC(C)C)NC(=O)[C@H](CC(C)C)N(C)C(=O)[C@@H](CC(C)C)N(C)C1=O [(3), [Phe-Leu-NMe-D-Leu-NMe-Leu-Leu-D-Pro]] (cyclo(FL[dNMeL][NMeL]L[dP])) | – | low CL | 11.6 | 2.9 | very high CL | – | < 0.01 | – | – | – | 330 ± 24 | 0.6 ± 0.1 | 2 | – | −4.0 | 30 (≈ 21.7 µg/mL) | 488 | – | – | – | bioavailability (in vivo; OF1, mouse): 7 ± 2%; Tmax ([8]; 7.5 mg/kg): 18 ± 6 min
CC[C@@H]1NC(=O)[C@H]2CCCN2C(=O)[C@H](CC(C)C)NC(=O)[C@H](CC(C)C)N(C)C(=O)[C@@H](CC(C)C)N(C)C(=O)[C@H](CC(C)C)NC1=O [(4), [Abu-Leu-NMe-D-Leu-NMe-Leu-Leu-D-Pro]] (cyclo([Abu]L[dNMeL][NMeL]L[dP])) | 39 ± 4 | medium CL | 4 | 2.7 | very high CL | 11 | < 0.01 | 41 | 1.66 | 1.84 | 48 ± 12 | 2.1 ± 0.2 | 49 ± 14 | 18 | −4.3 | 602 (≈ 399 µg/mL) | 324 | – | – | – | –
CC(C)C[C@@H]1NC(=O)[C@H](Cc2ccc(O)cc2)NC(=O)[C@H]2CCCN2C(=O)[C@H](CC(C)C)NC(=O)[C@H](CC(C)C)NC(=O)[C@@H](CC(C)C)NC1=O [(1), [Tyr-Leu-D-Leu-Leu-Leu-D-Pro-]] (cyclo(LL[dP]YL[dL])) | – | high CL | – | 4.8 | – | – | 0.08 | – | – | – | – | – | – | – | – | 151 (≈ 108 µg/mL) | 95 | 82 ± 15 | 0.8 ± 0.2 | 0.6 ± 0.3 | T1/2term [10]: 0.2 ± 0.0 h
CC(C)C[C@@H]1NC(=O)[C@H](Cc2ccc(O)cc2)N(C)C(=O)[C@H]2CCCN2C(=O)[C@H](CC(C)C)NC(=O)[C@H](CC(C)C)N(C)C(=O)[C@@H](CC(C)C)N(C)C1=O [(2), [NMe-Tyr-Leu-NMe-D-Leu-NMe-Leu-Leu-D-Pro]] (cyclo(L[dNMeL][NMeL]L[dP][NMeY])) | – | low CL | – | 4.1 | medium clearance | – | < 0.01 | – | – | – | – | – | – | – | – | 26 (≈ 19.6 µg/mL) | 63 | 1 ± 0 | 0.4 ± 0.0 | 3.8 ± 3.1 | T1/2term [10]: 22.6 ± 5.4 h

From paper PMC5838147, “Modulation of Oral Bioavailability and Metabolism for Closely Related Cyclic Hexapeptides” (International Journal of Peptide Research and Therapeutics, 2017)
